# Data reported in US11103158B2, “Pure non-invasive method for identification of organ diseases or impaired organ function by investigation of marker substances in exhaled air stimulated by inhaled marker substances” (FREIE UNIVERSITÄT BERLIN, priority 2015, dated 2021).
# Like-named read-outs stand apart in the source and are kept apart here.
# Assays:
# [1] = in vivo
# [2] = PTR-MS of volatile organic compounds in exhaled breath of vegan persons, volunteers and liver patients, also grouped by LiMAx value
# CYP 2C9 and CYP 2C19 = conditions: reported by Mizayawa et al.; cited from earlier work
# [3] = test system: mammary, liver, lung, and other cancers; conditions: literature reports (Mizayawa et al.; Gold 1997); cited from earlier work
Compound,concentration in exhaled breath (m/z 137) [1],concentration in the expiratory air (m/z 137) [1],also measured
γ-pinene,almost identical,significantly increased,–
C=C1CCC2CC1C2(C)C (stereo not drawn) [β-pinene],almost identical,significantly increased,–
C=C(C)[C@H]1CC=C(C)CC1 [limonene],–,–,"concentration in exhaled breath (m/z 137) ([2]; comparison of the three groups (vegan diet, normal diet, liver disease patients), taking error bars into account, FIG. 1A): almost identical; concentration in the expiratory air (m/z 137) ([2]; patients with LiMAx value below 176 compared to LiMAx 176 to 351 or above 351, FIG. 1B): significantly increased; metabolization by enzymes (CYP 2C9 and CYP 2C19): metabolized by enzymes of the Cytochrome P450 family"
CC1=CCC2CC1C2(C)C (stereo not drawn) [α-pinene],almost identical,significantly increased,–
C=C(C)[C@@H]1CC=C(CO)CC1 [perillyl alcohol],–,–,"chemopreventive activity / cancer prevention [3]: prevent mammary, liver, lung, and other cancers"
